Like-named read-outs stand apart in the source and are kept apart here.
What was measured:
[1] = Plasma and ocular tissue drug concentration after topical eye drops; type: in vivo, Norway Brown rats; settings: for concentration at 5 hours after third drop: female, Norway Brown, rat, topical, 30 μl (5 mg/ml) per drop, three drops over 24 hours, 30 μl drops to left eye only, three times over 24 hours
Protocol: Female Norway Brown rats were used during these studies. Rats were purchased from Charles River (Portage, Mich.). […]
Rats were euthanized by CO2 inhalation before enucleation and collection of plasma samples. Samples were frozen immediately over dry ice after collection and then stored at −80° C. The ocular tissues were processed through a dissection-pulverization-drug extraction process. Frozen eye sectioning was performed by the following steps. The preparation of rat eye cups was done by removing the anterior portion of the eye with a razor blade followed by removal of the lens and frozen vitreous with forceps. A sagittal section was made in the eye cup before collection of the retina/choroid tissue by scraping the exposed sclera with the round end of a spatula until the pigmented tissue was completely removed from the scleral tissue. The collected tissues were pulverized under liquid nitrogen. Frozen tissue was carefully placed in a liquid nitrogen primed BioPulverizer (Biospec Products Inc, Bartlesville, Okla.). Following pulverization the tissue powder was removed from the pulverizer and transferred into a polypropylene tube. Extraction buffer (50% methanol/50% 0.5 M HCl) was added to tissue powder followed by two cycles of sonication, centrifugation, and supernatant collection. Tissue homogenate supernatant was pooled and frozen on dry ice then stored at −80° C. until drug analysis. The extraction efficacy of this methodology was assumed to be 100% for calculation purposes.
Plasma samples and eye tissue extracts were analyzed for pazopanib using a validated analytical method based on protein precipitation, followed by HPLC/MS/MS analysis, Using 50 μl aliquot of plasma and eye tissue extract, the lower limit of quantification of pazopanib was 1 ng/ml for plasma and 10 ng/ml for eye tissue extract. The higher limit of quantification was 500 ng/ml for plasma and 5000 ng/ml for eye tissue extracts. The computer systems that were used on these studies to acquire and quantify data included Analyst Version 1.4,1 and SMS2000 Version 1.6. Plasma sample concentrations were expressed as ng pazopanib/ml. Tissue concentrations were determined by the following formula: Pazopanib ng/g tissue=([concentration in supernatant ng/ml*extract volume ml]/tissue weight g).

[2] = test system: experimental CNV (choroidal neovascularization) leakage; assay: Fluorescence angiography in experimental laser-induced CNV; type: in vivo, Brown Norway rats
Protocol: (§1) Male Brown Norway rats (10-12 weeks of age, […] weighing 170 to 360 g) were used throughout this study. The animals were treated according to ARVO Statement on the use of animals in ophthalmic and vision research, and all animal experiments were reviewed and approved by municipal and University Hospital animal care committees in Leipzig. The rats were anesthetized with intraperitoneal ketamine (100 mg/kg; Ratiopharm, Ulm, Germany) and xylazine (BayerVital, Leverkusen, Germany; 10 mg/kg). Topical application of tropicamide (5 mg/ml) and phenylephrine hydrochloride (Ankerpharm, Rudolstadt, Germany; 50 mg/ml) were instilled for mydriasis during laser photocoagulation and fluorescein angiography. Fourteen days after laser injury, rats were humanely euthanized using overdoses of carbon dioxide.
(§2) Animals were treated using laser photocoagulation-induced rupture of Bruch's membrane using a 545 nm dye laser (Coherent Argon Dye Laser #920, Coherent Medical Laser, Palo Alto, Calif.) attached to a slit lamp (Carl Zeiss, Oberkochen, Germany). A contact lens was used to retain corneal clarity through photocoagulation. The laser spots were placed separately using the following settings; 50-μm diameter, 0.1 second duration, and 180-mW intensity. To rupture Bruch's membrane, four to seven laser spots were applied between the major retinal vessels close to the optic disc. Pazopanib (approximately 30 μl of a 5 mg/ml sterile-filtered solution) was administered twice daily. Animals of the control group received a vehicle only.
Aiming to document treatment of CNV in its early stage, a treatment schedule was used as follows. Laser photocoagulation was carried out as described above, and pazopanib was applied twice a day topically from post laser day 6 until study end on post laser day 14. Coagulated lesions were first documented by angiography on day 7 post laser, and only rats with ocular CNV were included in the analysis. Sodium fluorescein was injected into tail vein of the anesthetized rats and fluorescein angiograms were obtained by means of a fundus camera (FD-31A, Topcon, Tokyo, Japan). On day 14, rats underwent a second angiography. Angiograms taken 100 to 140 seconds after injection were converted to digital images, and areas of fluorescein leakage with intensity as high as in major vessels were quantified in a masked fashion BY two of us (YY; XMY) using a computer software (NIH image, Research Service Branch, Bethesda, Md.). Differences in fluorescence were calculated by the following formula:
Area of fluorescein leakage on day 14×100%/area of fluorescein leakage on day 7.

CNV lesions = assay: Histology (HE) of CNV lesion area on post-laser day 14; type: in vivo, Brown Norway rats
Protocol: as §1, §2
After the rats were euthanized on day 14, eyes were immediately dissected and fixed with 4% paraformaldehyde (dissolved in PBS). […] Three to five serial sections from each CNV membrane were measured, and the highest value (representing the top of a given CNV complex) was stored. Digitized images were analyzed and measured with the concomitant image-analysis software (Axiovision; Carl Zeiss). Each lesion was encircled manually, and their area (in μm^2) was calculated by the program.

[3] = Ocular tissue distribution and systemic concentrations of radioactivity after topical ocular administration; type: in vivo, Dutch belted (pigmented) rabbits
Protocol: The ocular tissue distribution and systemic concentrations of radioactivity were assessed following topical ocular administration of pazopanib to Dutch belted (pigmented) rabbits. A single 60-μL at a target dose of 0.3 mg/dose (30 μCi/dose) was administered to the right eye. Blood and ocular tissues from both the dosed and non-dosed (left) eye were collected from one animal at each of eight sampling times up to 24 h, and analyzed for total radioactivity.

[4] = single 60-μL topical dose 0.3 mg
[5] = single 60-μL topical dose 0.3 mg, 2 h

Question: With Cc1ccc(Nc2nccc(N(C)c3ccc4c(C)n(C)nc4c3)n2)cc1S(N)(=O)=O [pazopanib, 5-[[4-[(2,3-dimethyl-2H-indazol-6-yl)methylamino]-2-pyrimidinyl]amino]-2-methylbenzenesulfonamide] as the molecule, how does the concentration at 5 hours after third drop ([1]; eye cup tissues of the fellow non-treated eye (OD), read-out: pazopanib in eye cup tissues, fellow non-treated eye (OD), mean) read?
Answer: The concentration at 5 hours after third drop was 159 ng/g.

Question: And the concentration at 5 hours after third drop ([1]; read-out: pazopanib in eye cup tissues (sclera, choroid, retina), treated eye (OS), mean)?
Answer: Its concentration at 5 hours after third drop is 503 ng/g.

Question: And the “plasma level after 24 hours” value ([1]; single 30 μl eye drop)?
Answer: Its value is “undetectable”.

Question: And the “time of peak plasma level” value ([1]; single 30 μl eye drop)?
Answer: Its value is 60 min.

Question: And the peak plasma level ([1]; single 30 μl eye drop (5 mg/ml))?
Answer: The peak plasma level was about 300 ng/mL.

Question: And the “Area of fluorescein leakage on day 14 x 100% / area on day 7” value ([2]; lesioned eyes whose fellow (contralateral) eye was pazopanib-treated, % of baseline day 7)?
Answer: The value was 115.24±16.72%.

Question: And the “development of CNV lesions (vessel leakage, fluorescence angiography)” value ([2]; topically administered, post laser days 7 to 14, versus vehicle)?
Answer: Its value is “significantly reduced”.

Question: And the “Area of fluorescein leakage on day 14 x 100% / area on day 7” value ([2]; topically treated eyes, twice daily 5 mg/ml eye drops, post laser day 6-14, mean±SD, baseline 100% at day 7)?
Answer: Its value is 111.41±21.34%.

Question: What about the “inhibition of further lesion development” value ([2]; twice-daily topical administration, versus vehicle control eyes) of the same molecule?
Answer: The value was over 89%.

Question: And the CNV lesion area (CNV lesions; eyes treated topically with pazopanib, day 14 after laser)?
Answer: Its CNV lesion area is 7,760.3±2,312.0 μm^2.

Question: And the “inhibition in lesion size” value (CNV lesions; lasered eyes from rats treated topically in the fellow eye)?
Answer: Its value is about 34%.

Question: What about the “inhibition in lesion size compared to vehicle control” value (CNV lesions; topically treated eyes, day 14) of the same molecule?
Answer: The value was 71.7%.

Question: And the “time of choroid peak level” value [3, 4]?
Answer: Its value is 8 h.

Question: What about the “time of highest concentration in blood” value [3, 4] of the same molecule?
Answer: The value was 1 h.

Question: And the “time of highest concentration in plasma” value [3, 4]?
Answer: The value was 2 h.

Question: And the “time of retina peak level” value [3, 4]?
Answer: Its value is 4 h.

Question: And the “highest concentration of radioactivity in blood” value ([3]; single 60-μL topical dose 0.3 mg to right eye, at 1 h)?
Answer: The value was 11.3 ng eq/g.

Question: What about the “highest concentration of radioactivity in plasma” value ([3]; single 60-μL topical dose 0.3 mg to right eye, at 2 h) of the same molecule?
Answer: The value was 12,8 ng eq/g.

Question: And the “choroid level of radioactivity at 2 h” value [3, 5]?
Answer: The value was 40.6 ng eq/g.

Question: And the “retina level of radioactivity at 2 h” value [3, 5]?
Answer: Its value is 9.17 ng eq/g.

Question: What about the “retina peak level of radioactivity” value ([3]; single 60-μL topical dose 0.3 mg, at 4 h) of the same molecule?
Answer: The value was 10.2 ng eq/g.

Question: And the “choroid peak level of radioactivity” value ([3]; single 60-μL topical dose 0.3 mg, at 8 h)?
Answer: Its value is 60.1 ng eq/g.
